Measurements as given in patent publication US20100093706A1, “MULTIMEDIATOR TRANSPORTER INHIBITORS FOR USE IN TREATMENT OF CENTRAL NERVOUS SYSTEM DISORDERS” (priority 2006, published 2010).

Columns and labels:
5-HT (h) = biological target: T1, 5-HT (h) (Homo sapiens, UniProt P31645); assay: cell-based; format: cell-based; conditions: read-out: 5-HT (h) in vitro functional uptake
T1 construct: expressed in transfected cells; host or cells: HEK-293
Description: (§1) Functional activity of the compounds was determined in vitro in cellular assays using recombinant human cell lines.

DAT (h) = biological target: T2, DAT (h) (Homo sapiens, UniProt Q01959); assay: cell-based; format: cell-based
T2 construct: expressed in transfected cells
Description: as §1

NET (h) = biological target: T3, NET (h) (Homo sapiens, UniProt P23975); assay: cell-based; format: cell-based; conditions: read-out: NET (h) in vitro functional uptake
T3 construct: expressed in transfected cells; host or cells: MDCK
Description: as §1

DAT (r) = DAT (r) (Rattus norvegicus, UniProt P23977); assay: in vitro functional uptake, rat DAT; format: cell-based
DAT (SLC6A3) = biological target: T4, DAT (SLC6A3) (Homo sapiens, UniProt Q01959); assay: in vitro inhibition profile, IC50 of DAT (uptake assay); format: cell-based
T4 construct: expressed in transfected cells
Description: Before the assay, cells expressing DAT are washed once with KRH and equilibrated for 5 min. The cells may be assayed in 24-well plates and incubated for 2-5 min. with tritiated amines. Nontransported inhibitors were preincubated for 5 min, and substrates were applied together with the tritiated substrate.
Experiments to determine the ionic requirements for DAT-mediated uptake are done in KRH buffer, substituting LiCl or choline Cl for NaCl (sodium-dependence) or substituting D-gluconates for NaCl and KCl, and Ca(NO3)2 for CaCl2 (chloride dependence). Cells are washed twice with sodium- or chloride-free KRH before the assay (each wash step at least 5 min). In all transport assays, incubation periods and substrate concentrations are chosen such that uptake obeyed first-order rate kinetics.
Vmax values for amine uptake in stable transfected DAT-cells are determined in parallel assays for at least two amines per experiment and expressed as relative values.

[1] = biological target: NET (norepinephrine transporter or SLC6A2) (Homo sapiens, UniProt P23975); assay: cell-based
5-HT = 5-HT (Homo sapiens, UniProt P31645); assay: cell-based
M1 receptor = biological target: T5, M1 receptor (Homo sapiens, UniProt P11229); assay: in vitro selectivity panel, M1 receptor; format: binding
T5 sequence (P11229 1-460): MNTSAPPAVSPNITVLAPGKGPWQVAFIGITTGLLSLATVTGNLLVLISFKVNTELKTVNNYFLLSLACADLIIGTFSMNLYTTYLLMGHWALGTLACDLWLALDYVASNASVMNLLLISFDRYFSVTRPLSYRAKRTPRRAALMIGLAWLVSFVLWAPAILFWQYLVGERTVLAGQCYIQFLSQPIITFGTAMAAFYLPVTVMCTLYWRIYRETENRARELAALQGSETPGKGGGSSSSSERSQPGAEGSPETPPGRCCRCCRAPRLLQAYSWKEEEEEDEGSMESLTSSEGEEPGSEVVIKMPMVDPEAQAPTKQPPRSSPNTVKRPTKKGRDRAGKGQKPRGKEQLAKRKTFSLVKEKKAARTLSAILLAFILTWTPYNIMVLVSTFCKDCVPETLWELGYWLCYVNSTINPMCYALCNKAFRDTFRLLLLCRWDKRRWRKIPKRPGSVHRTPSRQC
Description: (§2) The in vitro selectivity profile of two representative subject compounds, (3) and (1), are also tested against a panel of other receptors, including the M1 receptor, Histamine H1 receptor, sigma-1 (σ1) receptor, β1-adrenergic receptor, and dopamine D2 receptor. Representative results are listed below in Table III: […]

Histamine H1 receptor = Histamine H1 receptor (Homo sapiens, UniProt P35367); assay: in vitro selectivity panel, Histamine H1 receptor; format: binding
Description: as §2

sigma-1 (σ1) receptor = sigma-1 (σ1) receptor (Homo sapiens, UniProt Q99720); assay: in vitro selectivity panel, sigma-1 receptor; format: binding
Description: as §2

β1-adrenergic receptor = β1-adrenergic receptor (Homo sapiens, UniProt P08588); assay: in vitro selectivity panel, β1-adrenergic receptor; format: binding
Description: as §2

dopamine D2 receptor = dopamine D2 receptor (Homo sapiens, UniProt P14416); assay: in vitro selectivity panel, dopamine D2 receptor; format: binding
Description: as §2

rats = assay: forced swim test (behavioral despair assay) in rats; format: in vivo; conditions: rat, i.p., racemic mixtures of diastereomers
Description: In vivo efficacy of several illustrative inhibitors of the instant invention, (1), (3), and (4), were measured using standard forced swim test model using rat. The objective of this study was to assess the antidepressant effects of test compounds in the behavioral despair assay in rats using a modification of a method described by Porsolt R. D. et al. in Behavioural despair in rats: a new model sensitive to antidepressant treatment, Eur. J. Pharmacol., 47: 379-391, 1978; Porsolt et al., Nature 266: 730-732, 1977; and Porsolt et al., in Psychopharmacology, Olivier, Mos, and Slangen (eds) Birkhäuser Verlag, Basel, pp. 137-159, 1991. Briefly, when mice (or rats) are forced to swim in a cylinder from which no escape is possible, they readily adopt a characteristic immobile posture and make no further attempts to escape except for small movements needed to keep floating. The immobility is considered by some to reflect a “depressive mood” (Porsolt et al., Nature 266: 730-732, 1977) in which animals cease to struggle to escape the aversive situation. The immobility induced by the procedure is influenced by a wide variety of antidepressants (Porsolt et al., in Psychopharmacology, Olivier, Mos, and Slangen (eds) Birkhauser Verlag, Basel, pp. 137-159, 1991) and has a good predictive validity in that it detects antidepressants with different mechanisms of action (TCAs, SSRIs, MAOIs, and other atypical ones). The test is sensitive to muscle-relaxant (benzodiazepines) and sedative (neuroleptics) effects, leading to enhanced immobility (Porsolt et al., supra).
In a typical experiment, animals are placed singly into a cylinder (e.g. 46×30 cm) containing fresh water at about 20° C. for 6 minutes. The activity (or immobility) of the animal is measured by an observer minute by minute. In more detail, the animals were preconditioned in a pretest session, where the rats were individually forced to swim inside a vertical plexiglass cylinder containing water maintained at 19-20° C. After 15 minutes in the water, they were allowed to dry for […] in a heated enclosure. Twenty-four hours later, the compounds were administered either intraperitoneally or orally to the animals. One hour after administration of the test compound, animals were put back into the cylinder containing water. The total duration of immobility was measured during the last 4 minutes of a 6 minute test.
The results are expressed as the percentage of variation of the total duration of immobility calculated from the mean value of the vehicle-treated group (% variation=[(immobility duration of vehicle−immobility duration of test compound)/(immobility duration of vehicle)]×100%).
In order to measure the in vivo efficacy of inhibiting DAT in rats using an inhibitor of the instant invention, one test inhibitor ((1), (3), or (4)) was injected i.p. as racemic mixtures of diastereomers into the animals, at various-doses (e.g. 7.5 and […]). Sibutramine (2.0 and 2.5 mg/kg), Bupropion (7.5 and 10 mg/kg), and Imipramine (30 mg/kg) were similarly administered as controls. […] Asterisks indicate highly statistical significant results.
A fourth inhibitor, (6) was administered p.o. as a racemic mixture of diastereomers at either 35 or 75 mg/kg. Sibutramine (5.0 and 3.75 mg/kg), Bupropion (30 and 40 mg/kg), and Imipramine (100 mg/kg) were similarly administered as controls.
Similarly, (1) was also administered p.o. as a racemic mixture of enriched (95:5) diastereomer at either 35 or 75 mg/kg. […]

in vivo = conditions: rat
DAT = biological target: T6, DAT (Homo sapiens, UniProt Q01959); conditions: human recombinant CHO-K1 cells; historical value (MDS Pharma Services); read-out: KD of radioligand, DAT assay; cited from earlier work
T6 construct: expressed in transfected cells; host or cells: CHO-K1

NET = biological target: T7, NET (Homo sapiens, UniProt P23975); conditions: human recombinant MDCK cells; historical value (MDS Pharma Services); read-out: KD of radioligand, NET assay; cited from earlier work
T7 construct: expressed in transfected cells; host or cells: MDCK
T7 sequence (P23975 whole entry): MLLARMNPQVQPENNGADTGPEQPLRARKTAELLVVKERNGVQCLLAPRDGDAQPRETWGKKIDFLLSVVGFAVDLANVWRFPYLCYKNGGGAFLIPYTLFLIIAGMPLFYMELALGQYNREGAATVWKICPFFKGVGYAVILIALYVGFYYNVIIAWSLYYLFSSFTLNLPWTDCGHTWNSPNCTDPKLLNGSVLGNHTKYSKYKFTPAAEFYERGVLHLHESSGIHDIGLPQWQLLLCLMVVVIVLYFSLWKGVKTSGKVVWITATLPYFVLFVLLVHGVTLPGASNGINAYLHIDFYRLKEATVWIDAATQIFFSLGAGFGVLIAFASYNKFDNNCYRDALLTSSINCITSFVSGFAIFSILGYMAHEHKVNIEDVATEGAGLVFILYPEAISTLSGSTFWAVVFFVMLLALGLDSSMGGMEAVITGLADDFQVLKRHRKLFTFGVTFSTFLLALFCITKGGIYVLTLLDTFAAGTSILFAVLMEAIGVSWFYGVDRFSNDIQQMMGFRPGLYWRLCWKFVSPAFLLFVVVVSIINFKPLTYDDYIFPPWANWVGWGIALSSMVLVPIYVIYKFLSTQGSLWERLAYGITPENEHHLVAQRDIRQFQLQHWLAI

T2 sequence (Q01959 whole entry): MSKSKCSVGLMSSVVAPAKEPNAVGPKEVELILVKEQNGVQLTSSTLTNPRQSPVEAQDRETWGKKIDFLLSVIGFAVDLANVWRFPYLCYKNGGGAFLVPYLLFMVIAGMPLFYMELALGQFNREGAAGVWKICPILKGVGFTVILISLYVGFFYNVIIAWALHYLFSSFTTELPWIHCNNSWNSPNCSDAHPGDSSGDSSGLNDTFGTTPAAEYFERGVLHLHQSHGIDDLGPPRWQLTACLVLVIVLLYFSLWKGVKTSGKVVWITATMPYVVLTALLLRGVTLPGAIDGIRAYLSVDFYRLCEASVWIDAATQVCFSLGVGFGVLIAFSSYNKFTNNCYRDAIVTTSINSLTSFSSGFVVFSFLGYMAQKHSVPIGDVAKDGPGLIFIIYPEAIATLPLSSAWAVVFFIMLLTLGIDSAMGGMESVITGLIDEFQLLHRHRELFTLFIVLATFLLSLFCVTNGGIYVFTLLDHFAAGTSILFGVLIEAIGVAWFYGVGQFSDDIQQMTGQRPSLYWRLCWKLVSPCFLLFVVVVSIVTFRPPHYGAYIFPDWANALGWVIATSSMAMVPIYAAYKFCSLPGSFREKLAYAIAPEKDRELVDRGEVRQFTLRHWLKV
T4 sequence (Q01959 whole entry): as above
T6 sequence (Q01959 whole entry): as above
sigma-1 (σ1) receptor, sequence (Q99720 whole entry): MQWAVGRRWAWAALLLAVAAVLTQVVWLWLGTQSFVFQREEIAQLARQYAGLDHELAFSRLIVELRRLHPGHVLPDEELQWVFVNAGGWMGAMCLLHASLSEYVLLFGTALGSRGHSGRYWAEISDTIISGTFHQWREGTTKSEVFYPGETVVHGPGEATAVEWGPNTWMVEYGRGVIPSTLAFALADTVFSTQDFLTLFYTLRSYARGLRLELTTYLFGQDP
Histamine H1 receptor, sequence (P35367 whole entry): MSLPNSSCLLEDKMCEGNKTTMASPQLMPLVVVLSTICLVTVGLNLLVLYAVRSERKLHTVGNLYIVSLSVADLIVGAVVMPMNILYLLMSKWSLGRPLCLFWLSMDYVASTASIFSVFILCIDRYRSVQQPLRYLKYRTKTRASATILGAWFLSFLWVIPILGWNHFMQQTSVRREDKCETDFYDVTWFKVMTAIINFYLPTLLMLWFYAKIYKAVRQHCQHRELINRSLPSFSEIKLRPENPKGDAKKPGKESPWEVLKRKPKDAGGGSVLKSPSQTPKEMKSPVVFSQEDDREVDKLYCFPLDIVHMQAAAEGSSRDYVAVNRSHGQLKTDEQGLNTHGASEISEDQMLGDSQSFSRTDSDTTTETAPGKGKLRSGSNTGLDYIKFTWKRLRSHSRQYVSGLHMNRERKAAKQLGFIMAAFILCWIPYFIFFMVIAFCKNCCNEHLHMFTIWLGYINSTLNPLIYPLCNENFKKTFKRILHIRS
5-HT, sequence (P31645 whole entry): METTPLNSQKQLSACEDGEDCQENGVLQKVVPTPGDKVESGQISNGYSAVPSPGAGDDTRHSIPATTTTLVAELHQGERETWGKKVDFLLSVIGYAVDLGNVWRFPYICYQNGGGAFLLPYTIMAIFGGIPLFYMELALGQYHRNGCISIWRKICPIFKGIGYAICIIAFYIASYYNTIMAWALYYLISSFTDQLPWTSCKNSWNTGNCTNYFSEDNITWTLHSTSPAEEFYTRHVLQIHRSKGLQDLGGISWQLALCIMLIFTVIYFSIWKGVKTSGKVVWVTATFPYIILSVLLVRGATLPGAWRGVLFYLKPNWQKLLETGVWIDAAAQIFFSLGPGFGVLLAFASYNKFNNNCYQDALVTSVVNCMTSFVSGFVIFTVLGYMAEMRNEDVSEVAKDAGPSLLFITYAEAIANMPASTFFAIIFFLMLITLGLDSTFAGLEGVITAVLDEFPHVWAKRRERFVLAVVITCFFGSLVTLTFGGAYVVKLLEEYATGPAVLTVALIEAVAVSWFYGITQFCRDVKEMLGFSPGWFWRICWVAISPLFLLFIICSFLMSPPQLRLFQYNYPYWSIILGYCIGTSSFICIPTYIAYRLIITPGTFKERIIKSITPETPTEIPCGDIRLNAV
T1 sequence (P31645 whole entry): as above
dopamine D2 receptor, sequence (P14416 whole entry): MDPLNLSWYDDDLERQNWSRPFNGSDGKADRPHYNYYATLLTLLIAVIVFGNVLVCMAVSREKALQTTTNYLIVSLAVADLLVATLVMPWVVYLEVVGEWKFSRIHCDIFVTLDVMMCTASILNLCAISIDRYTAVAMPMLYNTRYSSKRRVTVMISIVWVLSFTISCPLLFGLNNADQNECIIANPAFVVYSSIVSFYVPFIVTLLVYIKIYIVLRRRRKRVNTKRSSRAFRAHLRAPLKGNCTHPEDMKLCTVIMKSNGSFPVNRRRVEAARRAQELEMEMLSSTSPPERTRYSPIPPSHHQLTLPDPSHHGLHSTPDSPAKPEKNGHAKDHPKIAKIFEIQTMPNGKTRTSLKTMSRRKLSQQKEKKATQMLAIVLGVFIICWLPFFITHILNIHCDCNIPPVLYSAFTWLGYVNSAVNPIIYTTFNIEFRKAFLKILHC
β1-adrenergic receptor, sequence (P08588 whole entry): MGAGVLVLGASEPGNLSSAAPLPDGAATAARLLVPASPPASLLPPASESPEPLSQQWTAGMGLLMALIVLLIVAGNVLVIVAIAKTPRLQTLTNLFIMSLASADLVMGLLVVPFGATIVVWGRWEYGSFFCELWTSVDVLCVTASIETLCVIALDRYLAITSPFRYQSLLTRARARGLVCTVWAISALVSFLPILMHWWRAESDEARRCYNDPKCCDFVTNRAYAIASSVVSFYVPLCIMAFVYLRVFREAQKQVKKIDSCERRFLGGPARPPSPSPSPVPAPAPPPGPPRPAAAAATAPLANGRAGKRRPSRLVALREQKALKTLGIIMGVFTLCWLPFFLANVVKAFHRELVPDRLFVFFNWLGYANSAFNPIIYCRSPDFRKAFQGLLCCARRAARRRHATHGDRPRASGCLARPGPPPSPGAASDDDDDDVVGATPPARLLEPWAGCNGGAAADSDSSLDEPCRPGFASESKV
DAT (r), sequence (P23977 whole entry): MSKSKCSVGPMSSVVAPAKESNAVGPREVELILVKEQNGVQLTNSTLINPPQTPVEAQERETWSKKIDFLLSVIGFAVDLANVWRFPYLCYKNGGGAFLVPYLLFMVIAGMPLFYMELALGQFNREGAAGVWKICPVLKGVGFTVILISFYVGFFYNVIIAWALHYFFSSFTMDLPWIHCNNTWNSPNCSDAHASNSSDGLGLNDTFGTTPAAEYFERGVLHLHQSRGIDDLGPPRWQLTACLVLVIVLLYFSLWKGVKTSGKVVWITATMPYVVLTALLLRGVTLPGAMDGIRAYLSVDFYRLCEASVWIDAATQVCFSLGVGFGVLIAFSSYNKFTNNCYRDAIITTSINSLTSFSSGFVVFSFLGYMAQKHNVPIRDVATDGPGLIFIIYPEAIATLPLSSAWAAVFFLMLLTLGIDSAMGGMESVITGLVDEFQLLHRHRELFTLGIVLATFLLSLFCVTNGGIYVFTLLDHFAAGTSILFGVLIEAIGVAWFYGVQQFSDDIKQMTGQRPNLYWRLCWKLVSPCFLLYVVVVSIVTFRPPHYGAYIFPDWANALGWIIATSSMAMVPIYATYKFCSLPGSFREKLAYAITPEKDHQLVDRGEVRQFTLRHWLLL
NET (norepinephrine transporter or SLC6A2), sequence (P23975 whole entry): as the sequence (P23975 whole entry) above
T3 sequence (P23975 whole entry): as above

CC1CCC(COc2ccc(C(F)(F)F)cc2)CN1CC1(c2ccc(Cl)cc2)CCC1 (stereo not drawn) [(3)]
EC50 (5-HT (h)): 825 nM
EC50 (DAT (h)): 1 nM
selectivity for DAT over 5-HT (DAT (h)): 825 fold
selectivity for DAT over NET (DAT (h)): 200 fold
EC50 (NET (h)): 200 nM
EC50 (DAT (r)): 50 nM
IC50 (DAT (SLC6A3)): 1 nM
fold selectivity of DAT against related receptors (NET, 5-HT) (DAT (SLC6A3); from Table II IC50): 150-550 fold
IC50 [1]: 150 nM
IC50 (5-HT): 550 nM
M1 (nM)h (M1 receptor): 5000 nM
Histamine H1 (nM)h (Histamine H1 receptor): 5000 nM
Sigma σ1 (nM)h (sigma-1 (σ1) receptor): 5000 nM
β1-adrenergic (nM)h (β1-adrenergic receptor): 5000 nM
D2 (nM)h (dopamine D2 receptor): 1000 nM
forced swim test efficacy versus commercial drugs (FIG. 1) (rats): performed equally well, if not better, than the commercial drugs Sibutramine, Bupropion, and Imipramine
Vd (in vivo): 10 L/kg
half-life (in vivo; iv): 8.33 h
bioavailability (in vivo; po): 70%

COC(=O)[C@H]1[C@@H](c2ccc(I)cc2)C[C@@H]2CC[C@H]1N2C [[^125I] RTI-55]
Kd (DAT): 0.58 nM
Kd (NET): 24 nM
